Consider 21 compounds from patent publication US6191282A, “Substituted 5-membered ring heterocycles comprising a bicyclic or tricyclic group their preparation and their use” (Hoechst Marion Roussel, priority 1993, dated 2001).

The structures appear in SMILES notation. Structures can show the parent of a compound that is named as a salt. Where two headings read alike, the source gives them in different places.

Assay [1] concerns the target T1, isolated fibrinogen receptor (glycoprotein IIb/IIIa) (Homo sapiens, UniProt P05106+P08514).
T1 construct: isolated from human thrombocytes and immobilized in microtitre plates; from tissue; host or cells: human thrombocytes (platelets), receptor isolated
The assay is described as follows: Inhibition of 125I-fibrinogen binding to the isolated, immobilized receptor (glycoprotein IIb/IIIa) (Test method 3). The conditions noted are these: isolated receptor immobilized in microtitre plates. Here is the method:
The inhibition of the binding of fibrinogen to its receptor (glycoprotein IIb/IIIa) which is brought about by the compounds according to the invention is tested on the isolated receptor, which was isolated from human thrombocytes and immobilized in microtitre plates.

Assay [2] deals with gel-filtered human thrombocytes. Put plainly: Inhibition of the aggregation of gel-filtered human thrombocytes following stimulation with ADP or thrombin (Test method 1). The format is cell-based. As to conditions: 1 mg/ml fibrinogen, 37° C., GFP from 2-4 donors. As for the experimental part: As a functional test, measurement is made of the inhibition of the aggregation of gel-filtered human thrombocytes, following stimulation with ADP or thrombin, by the compounds according to the invention.
For this purpose, human thrombocytes were isolated from platelet-rich plasma (PRP) by gel filtration on Sepharose 2 B. The resulting suspension of gel-filtered platelets (GFP), which contained 3×10^8 platelets/ml, was activated in the presence of 1 mg/ml of fibrinogen either with 10 μM ADP or with 0.1 U/ml thrombin, and stirred in an aggregometer (PAP 4, Biodata, Hatboro, Penna., USA) at 37° C. and at 1000 revolutions per minute. The maximum increase in the translucency is taken as a measure of the aggregation. The test substances were added to the GFP at 37° C. and 2 min before activating with ADP or thrombin.

Where [3] appears, read: read-out: Ki, inhibition of the binding of 125I-fibrinogen, ADP-stimulated.
Setting [4] is: Homo sapiens, ADP-stimulated (10 μM ADP), read-out: IC50, inhibition of thrombocyte aggregation, ADP-stimulated.
Where [5] appears, read: Homo sapiens, Thrombin-stimulated (0.1 U/ml thrombin), read-out: IC50, inhibition of thrombocyte aggregation, Thrombin-stimulated.
[6] abbreviates: Ki, inhibition of the binding of 125I-fibrinogen, ADP-stimulated.
[7] abbreviates: ADP-stimulated (10 μM ADP), read-out: IC50, inhibition of thrombocyte aggregation, ADP-stimulated.
Where [8] appears, read: Thrombin-stimulated (0.1 U/ml thrombin), read-out: IC50, inhibition of thrombocyte aggregation, Thrombin-stimulated.

T1 sequence (P08514 32-887 limits assumed): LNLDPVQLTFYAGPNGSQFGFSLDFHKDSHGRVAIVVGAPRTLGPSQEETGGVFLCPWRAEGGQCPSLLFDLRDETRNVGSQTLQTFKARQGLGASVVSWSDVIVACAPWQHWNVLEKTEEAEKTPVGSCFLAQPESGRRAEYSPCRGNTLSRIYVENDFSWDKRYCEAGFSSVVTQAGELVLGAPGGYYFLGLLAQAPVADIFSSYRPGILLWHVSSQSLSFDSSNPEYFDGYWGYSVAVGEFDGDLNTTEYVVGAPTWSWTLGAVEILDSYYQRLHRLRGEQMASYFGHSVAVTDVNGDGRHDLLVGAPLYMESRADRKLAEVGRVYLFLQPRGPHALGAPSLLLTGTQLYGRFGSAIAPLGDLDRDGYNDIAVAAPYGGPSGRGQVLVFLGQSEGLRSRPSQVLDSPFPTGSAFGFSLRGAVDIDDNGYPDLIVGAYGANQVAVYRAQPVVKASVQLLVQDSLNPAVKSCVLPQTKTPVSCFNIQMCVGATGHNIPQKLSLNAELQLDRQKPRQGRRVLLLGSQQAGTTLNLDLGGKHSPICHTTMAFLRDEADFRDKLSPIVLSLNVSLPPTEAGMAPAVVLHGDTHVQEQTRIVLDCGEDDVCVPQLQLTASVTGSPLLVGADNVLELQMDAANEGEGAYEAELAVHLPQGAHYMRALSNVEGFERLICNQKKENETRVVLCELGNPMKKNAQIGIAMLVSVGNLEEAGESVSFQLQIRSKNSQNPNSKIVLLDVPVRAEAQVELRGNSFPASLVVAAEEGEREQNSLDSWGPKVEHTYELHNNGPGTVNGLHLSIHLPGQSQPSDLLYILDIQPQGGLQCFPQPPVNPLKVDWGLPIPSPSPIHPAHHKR
T1 sequence (P08514 891-1039 partner limits assumed): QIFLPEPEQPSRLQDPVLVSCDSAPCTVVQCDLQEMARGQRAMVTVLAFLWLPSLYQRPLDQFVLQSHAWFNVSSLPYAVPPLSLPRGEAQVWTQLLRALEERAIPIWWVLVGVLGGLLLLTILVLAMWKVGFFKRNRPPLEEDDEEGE
T1 sequence (P05106 27-788): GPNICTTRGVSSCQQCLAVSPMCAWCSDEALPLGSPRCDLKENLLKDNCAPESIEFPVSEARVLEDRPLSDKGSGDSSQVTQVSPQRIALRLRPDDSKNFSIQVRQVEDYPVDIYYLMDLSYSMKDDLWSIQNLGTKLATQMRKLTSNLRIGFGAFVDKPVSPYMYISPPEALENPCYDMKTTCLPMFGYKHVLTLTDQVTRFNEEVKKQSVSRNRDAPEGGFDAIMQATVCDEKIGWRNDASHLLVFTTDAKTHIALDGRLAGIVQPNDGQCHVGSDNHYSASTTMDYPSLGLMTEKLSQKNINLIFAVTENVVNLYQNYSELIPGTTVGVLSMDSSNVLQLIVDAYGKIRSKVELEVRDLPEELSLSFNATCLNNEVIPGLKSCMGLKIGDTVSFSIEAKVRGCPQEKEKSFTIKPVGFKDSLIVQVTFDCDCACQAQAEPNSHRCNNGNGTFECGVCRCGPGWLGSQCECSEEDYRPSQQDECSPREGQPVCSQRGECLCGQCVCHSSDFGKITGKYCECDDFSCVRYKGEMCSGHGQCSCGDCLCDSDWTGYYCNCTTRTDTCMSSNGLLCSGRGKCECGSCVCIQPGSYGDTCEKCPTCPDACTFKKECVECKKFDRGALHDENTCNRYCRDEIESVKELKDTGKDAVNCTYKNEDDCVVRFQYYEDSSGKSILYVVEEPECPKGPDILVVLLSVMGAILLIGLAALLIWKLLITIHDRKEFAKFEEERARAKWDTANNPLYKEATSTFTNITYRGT

Usually Ki stands for the equilibrium dissociation constant of an inhibitor or competing ligand from its target. One may read the IC50 as the concentration at which inhibition is half-maximal. With `CC1(c2ccc(C(=N)N)cc2)NC(=O)N(CC(=O)NC(CC(=O)O)c2ccccc2)C1=O` (racemic) [Example 13, (R,S)-3-(((R,S)-4-(4-(Aminoiminomethyl)phenyl)-4-methyl-2,5-dioxoimidazolidin-1-yl)acetylamino)-3-phenylpropionic acid hydrochloride], in assay [1] (setting [3]), the Ki is 0.748 nM. Also, the IC50 in assay [2] (setting [4]) and in assay [2] (setting [5]) was 200 nM each time.
As to `CC1(c2ccc(C(=N)N)cc2)NC(=O)N(CC(=O)NC(CC(=O)O)c2cccc([N+](=O)[O-])c2)C1=O` (racemic) [Example 39, (R,S)-3-(((R,S)-4-(4-(Aminoiminomethyl)phenyl)-4-methyl-2,5-dioxoimidazolidin-1-yl)acetylamino)-3-(3-nitrophenyl)propionic acid], in assay [1] (setting [3]), the Ki is 0.948 nM. The half-inhibitory concentration (IC50) in assay [2] (setting [4]) was determined as 80 nM; in assay [2] (setting [5]), 150 nM.
For `CC1(c2ccc(C(=N)N)cc2)NC(=O)N(CC(=O)NC(CC(=O)O)c2ccc(C(=O)O)cc2)C1=O` (racemic) [Example 40, (R,S)-3-(((R,S)-4-(4-(Aminoiminomethyl)phenyl)-4-methyl-2,5-dioxoimidazolidin-1-yl)acetylamino)-3-(4-hydroxycarbonylphenyl)propionic acid] the same measures were 1.99 nM, 400 nM and 250 nM.
With `CC1(c2ccc(C(=N)N)cc2)NC(=O)N(CC(=O)NC(CC(=O)O)c2ccc(-c3ccccc3)cc2)C1=O` (racemic) [Example 46, (R,S)-3-(((R,S)-4-(4-Aminoiminomethyl)phenyl)-4-methyl-2,5-dioxoimidazolidin-1-yl)acetylamino)-3-(4-phenylphenyl)propionic acid], in assay [1] (setting [3]), the Ki amounted to 1.23 nM. The IC50 in assay [2] (setting [4]) and in assay [2] (setting [5]) was 100 nM in each case.
As for `CC1(c2ccc(C(=N)N)cc2)NC(=O)N(CC(=O)N[C@@H](CC(=O)O)C(=O)N[C@H](C(=O)O)c2ccccc2)C1=O` (single isomer, unassigned) [Example 21, ((S or R)-4-(4-(Aminoiminomethyl)phenyl)-4-methyl-2,5-dioxoimidazolidin-1-yl)acetyl-L-aspartyl-L-phenylglycine], the Ki in assay [1] (setting [6]) is 1.9 nM. For the same compound, the IC50 in assay [2] (setting [7]) was determined as 800 nM; in assay [2] (setting [8]) it was 500 nM.
With `CC1(c2ccc(C(=N)N)cc2)NC(=O)N(CC(=O)N[C@@H](CC(=O)O)C(=O)N[C@H](C(=O)O)c2ccccc2)C1=O` (single isomer, unassigned) [Example 22, ((R or S)-4-(4-(Aminoiminomethyl)phenyl)-4-methyl-2,5-dioxoimidazolidin-1-yl)acetyl-L-aspartyl-L-phenylglycine], in assay [1] (setting [6]), the affinity corresponds to a Ki of 0.15 nM. The IC50 in assay [2] (setting [7]) came to 25 nM; in assay [2] (setting [8]), 50 nM.
Turning to `CC1(c2ccc(C(=N)N)cc2)NC(=O)N(CC(=O)NC[C@H](N)C(=O)O)C1=O` (stereo partly drawn) [Example 7, 2-Amino-3-(((R,S)-4-(4-(aminoiminomethyl)-phenyl)-4-methyl-2,5-dioxoimidazolidin-1-yl)acetylamino)propionic acid hydrochloride], the IC50 in assay [2] (setting [4]) and in assay [2] (setting [5]) was 300 nM in each case.
For `CC1(c2ccc(CN)cc2)NC(=O)N(CC(=O)N[C@@H](CC(=O)O)C(=O)N[C@H](C(=O)O)c2ccccc2)C1=O` (stereo partly drawn) [Example 8, ((R,S)-4-(4-(Aminomethyl)phenyl)-4-methyl-2,5-dioxoimidazolidin-1-yl)acetyl-L-aspartyl-L-phenylglycine], the figures for the IC50 in assay [2] (setting [4]) and in assay [2] (setting [5]) were 150 nM and 100 nM, respectively.
On the same counts, the results for `N=C(N)c1ccc(CC2NC(=O)N(CC(=O)NC[C@H](NC(=O)OCc3ccccc3)C(=O)O)C2=O)cc1` (stereo partly drawn) [Example 9, 3-(((R,S)-4-(4-(Aminoiminomethyl)benzyl)-2,5-dioxoimidazolidin-1-yl)acetylamino)-2-benzyloxycarbonylaminopropionic acid] are 1000 nM and 500 nM.
For `CC1(c2ccc(NC(=N)N)cc2)NC(=O)N(CC(=O)N[C@@H](CC(=O)O)C(=O)N[C@H](C(=O)O)c2ccccc2)C1=O` (stereo partly drawn) [Example 10, ((R,S)-4-(4-Guanidinophenyl)-4-methyl-2,5-dioxoimidazolidin-1-yl)acetyl-L-aspartyl-L-phenylglycine] the same measures were 150 nM and 60 nM.
For the compound `CC(C)(C)OC(=O)NN(CC(=O)O)C(=O)CN1C(=O)NC(=Cc2ccc(C(=N)N)cc2)C1=O` [Example 20], the IC50 amounted to 2000 nM in assay [2] (setting [4]) and 1000 nM in assay [2] (setting [5]).
On the same counts, the results for `COC(=O)[C@@H](NC(=O)[C@H](CC(=O)O)NC(=O)CN1C(=O)NC(C)(c2ccc(C(=N)N)cc2)C1=O)c1ccccc1` (stereo partly drawn) [Example 23, ((R,S)-4-(4-(Aminoiminomethyl)phenyl)-4-methyl-2,5-dioxoimidazolidin-1-yl)acetyl-L-aspartyl-L-phenylglycine methyl ester] are 30 nM and 50 nM.
On to `CCN1C(=O)N(CC(=O)N[C@@H](CC(=O)O)C(=O)N[C@H](C(=O)O)c2ccccc2)C(=O)C1(C)c1ccc(C(=N)N)cc1` (stereo partly drawn) [Example 24, ((R,S)-4-(4-(Aminoiminomethyl)phenyl)-3-ethyl-4-methyl-2,5-dioxoimidazolidin-1-yl)acetyl-L-aspartyl-L-phenylglycine], for which the IC50 amounted to 55 nM in assay [2] (setting [7]) and 80 nM in assay [2] (setting [8]).
On to `CC1(c2ccc(C(=N)N)cc2)C(=O)N(CC(=O)N[C@@H](CC(=O)O)C(=O)N[C@H](C(=O)O)c2ccccc2)C(=O)N1Cc1ccccc1` (stereo partly shown) [Example 25], for which the Ki in assay [1] (setting [3]) turned out to be 0.175 nM. Further, the results for the IC50 in assay [2] (setting [4]) and in assay [2] (setting [5]) were 30 nM and 50 nM, respectively.
With `N=C(N)c1ccc(C2(C3CC3)NC(=O)N(CC(=O)N[C@@H](CC(=O)O)C(=O)N[C@H](C(=O)O)c3ccccc3)C2=O)cc1` (stereo partly drawn) [Example 26, ((R,S)-4-(4-(Aminoiminomethyl)phenyl)-4-cyclopropyl-2,5-dioxoimidazolidin-1-yl)acetyl-L-aspartyl-L-phenylglycine], the Ki in assay [1] (setting [3]) amounted to 0.117 nM. Also, the IC50 in assay [2] (setting [4]) was found to be 20 nM; in assay [2] (setting [5]), 40 nM.
For `CCC1(c2ccc(C(=N)N)cc2)NC(=O)N(CC(=O)N[C@@H](CC(=O)O)C(=O)N[C@H](C(=O)O)c2ccccc2)C1=O` (stereo partly drawn) [Example 27, ((R,S)-4-(4-(Aminoiminomethyl)phenyl)-4-ethyl-2,5-dioxoimidazolidin-1-yl)acetyl-L-aspartyl-L-phenylglycine] the same measures were 0.107 nM, 25 nM and 40 nM.
On the same counts, the results for `N=C(N)c1ccc(C2(Cc3ccccc3)NC(=O)N(CC(=O)N[C@@H](CC(=O)O)C(=O)N[C@H](C(=O)O)c3ccccc3)C2=O)cc1` (stereo partly drawn) [Example 28, ((R,S)-4-(4-(Aminoiminomethyl)phenyl)-4-benyl-2,5-dioxoimidazolidin-1-yl)acetyl-L-aspartyl-L-phenylglycine] are 0.078 nM, 25 nM and 40 nM.
For `CC(C)(C)C1(c2ccc(C(=N)N)cc2)NC(=O)N(CC(=O)N[C@@H](CC(=O)O)C(=O)N[C@H](C(=O)O)c2ccccc2)C1=O` (stereo partly shown) [Example 29], the values for the IC50 in assay [2] (setting [4]) and in assay [2] (setting [5]) were 50 nM and 40 nM, respectively.
On the same counts, the results for `CC1(c2ccc(C(=N)N)cc2)NC(=O)N(CC(=O)N[C@@H](CC(=O)O)C(=O)NC23CC4CC(CC(C4)C2)C3)C1=O` (stereo partly drawn) [Example 68, (2-((R,S)-4-(4-(aminoiminomethyl)phenyl)-4-methyl-2,5-dioxoimidazolidin-1-yl)acetyl)-L-aspartyl-1-adamantylamide] are 50 nM and 45 nM.
For `CC1(c2ccc(C(=N)N)cc2)NC(=O)N(CC(=O)N[C@@H](CC(=O)O)C(=O)NC2C3CC4CC(C3)CC2C4)C1=O` (stereo partly drawn) [Example 69, (2-((R,S)-4-(4-(Aminoiminomethyl)phenyl)-4-methyl-2,5-dioxoimidazolidin-1-yl)acetyl)-L-aspartyl-2-adamantylamide] the same measures were 25 nM and 45 nM.
On to `CC1(c2ccc(C(=N)N)cc2)NC(=O)N(CC(=O)N[C@@H](CC(=O)O)C(=O)NCC23CC4CC(CC(C4)C2)C3)C1=O` (stereo partly drawn) [Example 70, (2-((R,S)-4-(4-(Aminoiminomethyl)phenyl)-4-methyl-2,5-dioxoimidazolidin-1-yl)acetyl)-L-aspartyl-(1-adamantylmethyl)amide], for which the IC50 in assay [2] (setting [4]) is 65 nM; in assay [2] (setting [5]), 70 nM.
